According to the Kinase Knowledgebase extract (Sharma et al. 2016):

Experiments:
EGFR (human) [1] = molecular target: EGFR (human) (UniProt P00533); details: uacc-62
EGFR (human) [2] = molecular target: EGFR (human) (UniProt P00533); details: sn12c
EGFR (human) [3] = molecular target: EGFR (human) (UniProt P00533); details: mda-mb-435
EGFR (human) [4] = molecular target: EGFR (human) (UniProt P00533); details: hop-62
EGFR (human) [5] = molecular target: EGFR (human) (UniProt P00533); details: ccrf-cem
EGFR (human) [6] = molecular target: EGFR (human) (UniProt P00533); details: sf-539
EGFR (human) [7] = molecular target: EGFR (human) (UniProt P00533); details: hct-116
EGFR (human) [8] = molecular target: EGFR (human) (UniProt P00533); details: du-145
EGFR (human) [9] = molecular target: EGFR (human) (UniProt P00533); details: ovcar-3
EGFR (mouse) = EGFR (mouse) (UniProt P00533); details: baf3
EGFR (human) [10] = molecular target: EGFR (human) (UniProt P00533); details: mcf-7

Sequence of EGFR (human) (P00533 whole entry, looked up): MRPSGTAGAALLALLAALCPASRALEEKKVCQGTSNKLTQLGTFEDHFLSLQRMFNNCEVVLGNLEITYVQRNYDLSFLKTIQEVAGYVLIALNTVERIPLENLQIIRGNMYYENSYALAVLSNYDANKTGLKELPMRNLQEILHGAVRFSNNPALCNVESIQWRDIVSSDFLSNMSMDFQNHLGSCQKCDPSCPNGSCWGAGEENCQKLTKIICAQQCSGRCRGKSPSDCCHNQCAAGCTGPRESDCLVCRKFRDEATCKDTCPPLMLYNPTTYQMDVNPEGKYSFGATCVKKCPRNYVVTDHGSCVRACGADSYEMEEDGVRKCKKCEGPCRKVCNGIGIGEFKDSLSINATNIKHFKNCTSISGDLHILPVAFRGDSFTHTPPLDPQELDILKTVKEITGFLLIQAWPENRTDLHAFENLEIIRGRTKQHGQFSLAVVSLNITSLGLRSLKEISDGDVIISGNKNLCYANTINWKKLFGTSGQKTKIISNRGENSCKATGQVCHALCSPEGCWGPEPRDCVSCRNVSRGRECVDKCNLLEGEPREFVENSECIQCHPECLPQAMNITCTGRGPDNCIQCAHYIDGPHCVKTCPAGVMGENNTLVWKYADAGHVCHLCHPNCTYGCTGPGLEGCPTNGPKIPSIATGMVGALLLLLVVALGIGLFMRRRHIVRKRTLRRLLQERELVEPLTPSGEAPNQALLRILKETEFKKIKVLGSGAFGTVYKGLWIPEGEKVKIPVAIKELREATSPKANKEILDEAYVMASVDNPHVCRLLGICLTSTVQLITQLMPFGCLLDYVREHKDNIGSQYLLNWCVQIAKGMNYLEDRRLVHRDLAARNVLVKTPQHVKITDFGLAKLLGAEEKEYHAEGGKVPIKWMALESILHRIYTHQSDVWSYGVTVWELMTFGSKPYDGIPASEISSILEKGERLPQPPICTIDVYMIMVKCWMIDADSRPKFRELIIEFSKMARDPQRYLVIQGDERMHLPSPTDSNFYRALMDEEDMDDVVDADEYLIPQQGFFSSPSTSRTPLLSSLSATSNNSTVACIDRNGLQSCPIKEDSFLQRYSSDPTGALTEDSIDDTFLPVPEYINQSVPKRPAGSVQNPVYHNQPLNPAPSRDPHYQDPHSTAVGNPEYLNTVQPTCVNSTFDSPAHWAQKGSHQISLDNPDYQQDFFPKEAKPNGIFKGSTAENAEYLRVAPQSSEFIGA

Row | Compound | IC50 (EGFR (human) [1]) | IC50 (EGFR (human) [2]) | IC50 (EGFR (human) [3]) | IC50 (EGFR (human) [4]) | IC50 (EGFR (human) [5]) | IC50 (EGFR (human) [6]) | IC50 (EGFR (human) [7]) | IC50 (EGFR (human) [8]) | IC50 (EGFR (human) [9]) | IC50 (EGFR (mouse)) | IC50 (EGFR (human) [10])
1 | O=C(NCCc1ccc(Cl)cc1)c1cc(NCc2cc(O)ccc2O)ccc1O | – | 9.8 µM | 20 µM | 17 µM | 1.6 µM | 8.4 µM | 15 µM | 16 µM | 5.9 µM | – | –
2 | O=C(NCCN1CCOCC1)c1cc(NCc2cc(O)ccc2O)ccc1O | 17 µM | 22 µM | 13 µM | – | 1.8 µM | 19 µM | 20 µM | 17 µM | 87 µM | > 50 µM | –
3 | CCCCCCCCCCCCNC(=O)c1cc(NCc2cc(O)ccc2O)ccc1O | 3.2 µM | 2.6 µM | 3.2 µM | 3.8 µM | 0.34 µM | 20 µM | 2.1 µM | 11 µM | 1.9 µM | – | –
4 | O=C(NCCc1ccccc1)c1ccc(NCc2cc(O)ccc2O)cc1 | 9.4 µM | 7.4 µM | – | 13 µM | 0.59 µM | 8.5 µM | 7.4 µM | 14 µM | 2.7 µM | > 200 µM | –
5 | COc1ccc(CCNC(=O)c2cc(NCc3cc(O)ccc3O)ccc2O)cc1 | – | 72 µM | 16 µM | 12 µM | 3.2 µM | 16 µM | 23 µM | 21 µM | 5.5 µM | > 100 µM | –
6 | O=C(NCCc1ccc(Br)cc1)c1cc(NCc2cc(O)ccc2O)ccc1O | 8.6 µM | – | 10 µM | 18 µM | – | 15.8 µM | 7.6 µM | 16 µM | – | – | –
7 | O=C(NCc1ccccc1)c1ccc(NCc2cc(O)ccc2O)cc1 | 12 µM | 9.7 µM | 12 µM | 20 µM | 2.7 µM | 9.7 µM | 10 µM | 15 µM | 6.8 µM | > 100 µM | –
8 | O=C(NCCCc1ccccc1)c1ccc(NCc2cc(O)ccc2O)cc1 | 7.9 µM | 3.2 µM | – | 16 µM | 0.83 µM | 3.4 µM | 6.4 µM | 13 µM | – | – | –
9 | O=C(NC1CCc2ccccc2C1)c1cc(NCc2cc(O)ccc2O)ccc1O (stereo not drawn) | 14 µM | 18 µM | 9.2 µM | 17 µM | 1.4 µM | 2.7 µM | 16 µM | 17 µM | – | – | –
10 | CCCCCCNC(=O)c1cc(NCc2cc(O)ccc2O)ccc1O | 12 µM | 6.1 µM | 15 µM | 19 µM | 0.56 µM | 2.3 µM | 17 µM | 15 µM | 4 µM | – | –
11 | O=C(NCCc1ccccc1)c1cccc(NCc2cc(O)ccc2O)c1 | 13 µM | 13 µM | 15 µM | 3.8 µM | 4.4 µM | 15 µM | 16 µM | 17 µM | 2.8 µM | – | –
12 | CC(C)CCCC(C)[C@H]1CCC2C3CCC4C[C@@H](NC(=O)c5cc(NCc6cc(O)ccc6O)ccc5O)CC[C@]4(C)C3CC[C@@]21C (stereo partly drawn) | – | – | – | – | – | – | – | – | – | – | > 50 µM

Results, then the compound that gave them:

Row | IC50 (EGFR (human) [1]) | IC50 (EGFR (human) [2]) | IC50 (EGFR (human) [3]) | IC50 (EGFR (human) [4]) | IC50 (EGFR (human) [5]) | IC50 (EGFR (human) [6]) | IC50 (EGFR (human) [7]) | IC50 (EGFR (human) [8]) | IC50 (EGFR (human) [9]) | IC50 (EGFR (mouse)) | IC50 (EGFR (human) [10]) | Compound
13 | 14 µM | 18 µM | 19 µM | 20 µM | 2.7 µM | 17 µM | 18 µM | 16 µM | 7.7 µM | – | – | O=C(NCCc1ccccc1)c1cc(NCc2cc(O)ccc2O)ccc1O
14 | 14 µM | 15 µM | 18 µM | 22 µM | 2.4 µM | 16 µM | 24 µM | 8.4 µM | 6.5 µM | – | – | O=C(NCCCc1ccccc1)c1cc(NCc2cc(O)ccc2O)ccc1O
15 | 18 µM | 19 µM | 23 µM | 2.5 µM | – | 2.5 µM | – | 17 µM | 62 µM | – | – | O=C(NCCc1ccc(O)cc1)c1cc(NCc2cc(O)ccc2O)ccc1O
16 | 15 µM | 12 µM | 30 µM | 23 µM | – | 21 µM | – | 16 µM | 21 µM | – | – | O=C(NCc1ccccc1)c1cc(NCc2cc(O)ccc2O)ccc1O
17 | 7.8 µM | 7.7 µM | 13 µM | – | 0.29 µM | 9.2 µM | 9.2 µM | 18 µM | 11 µM | – | – | O=C(NCCc1ccc(F)cc1)c1cc(NCc2cc(O)ccc2O)ccc1O
18 | 17 µM | 19 µM | 13 µM | 20 µM | 1 µM | 29 µM | 17 µM | 17 µM | 17 µM | – | – | O=C(NCCc1ccccn1)c1cc(NCc2cc(O)ccc2O)ccc1O
